Tested on: cancer cells
Experiment: Proteomics study (up- and downregulated proteins)
Type: cell-based
Conditions: for Hydroxymethylglutaryl-CoA synthase, cytoplasmic (HMGCS1) protein: proteomics
Excerpt: Proteomics provide a comprehensive understanding of mechanisms that are responsible for the cytotoxicity of anticancer drugs, and based on the expression of protein helps in identification of drug targets (see, Wang, Y.; et al., Met Based Drugs. 2008, 1-9). One of the disadvantages of proteomics is membrane-bound proteins due to their poor solubility and low abundance, are disproportionally represented in proteome profiles (see, Smith, C. Nature, 2004, 428, 225-231). Identification of target proteins utilizing proteomics technique coupled with mass spectrometry is an evolving technology platform that has the potential to identify novel proteins involved in key biological processes in cells. There are two mass spectrometry-based methods currently used for protein profiling. The use of high-resolution two-dimensional electrophoresis to separate proteins from different samples, followed by selection and staining of differentially expressed proteins to be identified by mass spectrometry is the more established method. In the second approach isotope coded affinity tag (ICAT) reagents are utilized to differentially label proteins from two different complex mixtures, that are then digested to yield labeled peptides. The labeled mixtures are then combined, the peptides separated by multidimensional liquid chromatography and analyzed by tandem mass spectrometry. In this method, complexity of the mixtures omitting the non-cysteine residues is reduced as here the cysteine residues of proteins get covalently attached to the ICAT reagent. Proteomics coupled with bioinformatics process the raw mass spectral data into protein data (see, Yu, L. R.; Essentials of Genomic and Personalized Medicine 2010, 89-96). The most critical software programs take peptide mapping and/or tandem MS results and determine the protein or peptide sequence that are most closely related to the experimental data. One of the more intriguing MS-based proteomic techniques is to identify the proteins which are overexpressed thus aids in identification of the target protein of the given drug. There are several examples reported in literature about successful application of Bru-seq and proteomics for identification of mechanism of action of drugs.
It is the second step in the mevalonate-dependent isoprenoid biosynthesis pathway. HMG-CoA is an intermediate in both cholesterol synthesis and ketogenesis. Thus, here the proteomics results are in accordance with the Bru-seq results, implying “cholesterol biosynthesis pathway” as key pathway activated by these series of compounds.
Among its related pathways are regulation of cholesterol biosynthesis by SREBP (SREBF) and terpenoid backbone biosynthesis.

[1] = protein: 28S ribosomal protein S16, mitochondrial, downregulated
[2] = protein: 28S ribosomal protein S17, mitochondrial, downregulated
[3] = protein: 28S ribosomal protein S18b, mitochondrial, downregulated
[4] = protein: 28S ribosomal protein S22, mitochondrial, downregulated
[5] = protein: 28S ribosomal protein S25, mitochondrial, downregulated
[6] = protein: 40S ribosomal protein S8, upregulated
[7] = protein: 40S ribosomal protein S26, upregulated
[8] = protein: 40S ribosomal protein S30, upregulated
[9] = protein: 60S ribosomal protein L19, upregulated
[10] = protein: 60S ribosomal protein L27a, upregulated
[11] = protein: 60S ribosomal protein L36a-like, upregulated
[12] = protein: 60S ribosomal protein L37, upregulated
[13] = protein: Aconitate hydratase, mitochondrial, downregulated
[14] = protein: Acyl-CoA desaturase, upregulated
[15] = protein: Alanine aminotransferase 2, upregulated
[16] = protein: Aldehyde dehydrogenase X, downregulated
[17] = protein: Apolipoprotein A-I, upregulated
[18] = protein: Apolipoprotein B-100, upregulated
[19] = protein: Apolipoprotein C-III, upregulated
[20] = protein: Beta-2-glycoprotein 1, upregulated
[21] = protein: Bleomycin hydrolase, upregulated
[22] = protein: Constitutive coactivator of peroxisome proliferator-activated receptor gamma, downregulated
[23] = protein: Copper-transporting ATPase 2, upregulated
[24] = protein: D-dopachrome decarboxylase, downregulated
[25] = protein: DNA topoisomerase 2-alpha, downregulated
[26] = protein: Deoxyribonuclease-2-alpha, upregulated
[27] = protein: Dermcidin, upregulated
[28] = protein: Diphthine methyltransferase, upregulated
[29] = protein: E3 ubiquitin-protein ligase TRIM69, upregulated
[30] = protein: Elongation factor G, mitochondrial, downregulated
[31] = protein: FAST kinase domain-containing protein 5, mitochondrial, downregulated
[32] = protein: Filamin-C, upregulated
[33] = protein: GH3 domain-containing protein, upregulated
[34] = protein: Histone H1.2, downregulated
[35] = protein: Hydroxymethylglutaryl-CoA synthase, cytoplasmic, upregulated
[36] = protein: Interleukin-36 beta, downregulated
[37] = protein: Iron-responsive element-binding protein 2, upregulated
[38] = protein: Keratin, type I cytoskeletal 20, downregulated
[39] = protein: Kinesin-like protein KIF27, upregulated
[40] = protein: LanC-like protein 2, downregulated
[41] = protein: MBT domain-containing protein 1, downregulated
[42] = protein: Mixed lineage kinase domain-like protein, upregulated
[43] = protein: Muellerian-inhibiting factor, upregulated
[44] = protein: NADH dehydrogenase [ubiquinone] 1 alpha subcomplex subunit 6, downregulated
[45] = protein: NADH dehydrogenase [ubiquinone] iron-sulfur protein 4, mitochondrial, downregulated
[46] = protein: NADH-ubiquinone oxidoreductase 75 kDa subunit, mitochondrial, downregulated
[47] = protein: Nucleolar transcription factor 1, downregulated
[48] = protein: Phosphatidylserine synthase 1, upregulated
[49] = protein: Proliferation marker protein Ki-67, downregulated
[50] = protein: Protein FAM83H, downregulated
[51] = protein: Protein FAM177A1, upregulated
[52] = protein: Protein PIMREG, upregulated
[53] = protein: Protein cornichon homolog 4, upregulated
[54] = protein: Putative ankyrin repeat domain-containing protein 31, upregulated
[55] = protein: RNA-binding motif protein, X chromosome, downregulated
[56] = protein: Scaffold attachment factor B1, downregulated
[57] = protein: Scaffold attachment factor B2, downregulated
[58] = protein: Sequestosome-1, upregulated
[59] = protein: Serine/threonine-protein kinase PLK4, upregulated
[60] = protein: Squalene synthase, upregulated
[61] = protein: Transcription elongation factor 1 homolog, downregulated

CCN(CC)CCCC(C)Nc1cnc(C(=O)Nc2cc(C)cc3cccnc23)cn1 (stereo not drawn) [J4, 5-((5-(diethylamino)pentan-2-yl)amino)-N-(6-methylquinolin-8-yl)pyrazine-2-carboxamide]
Abundance ratio [1]: 0.403
Abundance ratio (log2) [1]: −1.31
Abundance ratio [2]: 0.452
Abundance ratio (log2) [2]: −1.15
Abundance ratio [3]: 0.337
Abundance ratio (log2) [3]: −1.57
Abundance ratio [4]: 0.432
Abundance ratio (log2) [4]: −1.21
Abundance ratio [5]: 0.402
Abundance ratio (log2) [5]: −1.32
Abundance ratio [6]: 1.777
Abundance ratio (log2) [6]: 0.83
Abundance ratio [7]: 1.717
Abundance ratio (log2) [7]: 0.78
Abundance ratio [8]: 1.649
Abundance ratio (log2) [8]: 0.72
Abundance ratio [9]: 1.761
Abundance ratio (log2) [9]: 0.82
Abundance ratio [10]: 1.713
Abundance ratio (log2) [10]: 0.78
Abundance ratio [11]: 1.623
Abundance ratio (log2) [11]: 0.7
Abundance ratio [12]: 1.808
Abundance ratio (log2) [12]: 0.85
Abundance ratio [13]: 0.489
Abundance ratio (log2) [13]: −1.03
Abundance ratio [14]: 2.148
Abundance ratio (log2) [14]: 1.1
Abundance ratio [15]: 1.616
Abundance ratio (log2) [15]: 0.69
Abundance ratio [16]: 0.278
Abundance ratio (log2) [16]: −1.85
Abundance ratio [17]: 1.891
Abundance ratio (log2) [17]: 0.92
Abundance ratio [18]: 2.151
Abundance ratio (log2) [18]: 1.1
Abundance ratio [19]: 2.072
Abundance ratio (log2) [19]: 1.05
Abundance ratio [20]: 1.622
Abundance ratio (log2) [20]: 0.7
Abundance ratio [21]: 1.845
Abundance ratio (log2) [21]: 0.88
Abundance ratio [22]: 0.419
Abundance ratio (log2) [22]: −1.25
Abundance ratio [23]: 1.807
Abundance ratio (log2) [23]: 0.85
Abundance ratio [24]: 0.487
Abundance ratio (log2) [24]: −1.04
Abundance ratio [25]: 0.381
Abundance ratio (log2) [25]: −1.39
Abundance ratio [26]: 1.649
Abundance ratio (log2) [26]: 0.72
Abundance ratio [27]: 2.454
Abundance ratio (log2) [27]: 1.3
Abundance ratio [28]: 1.633
Abundance ratio (log2) [28]: 0.71
Abundance ratio [29]: 1.906
Abundance ratio (log2) [29]: 0.93
Abundance ratio [30]: 0.245
Abundance ratio (log2) [30]: −2.03
Abundance ratio [31]: 0.382
Abundance ratio (log2) [31]: −1.39
Abundance ratio [32]: 2.026
Abundance ratio (log2) [32]: 1.02
Abundance ratio [33]: 1.742
Abundance ratio (log2) [33]: 0.8
Abundance ratio [34]: 0.462
Abundance ratio (log2) [34]: −1.11
Abundance ratio [35]: 1.944
Abundance ratio (log2) [35]: 0.96
Abundance ratio [36]: 0.462
Abundance ratio (log2) [36]: −1.12
Abundance ratio [37]: 2.136
Abundance ratio (log2) [37]: 1.09
Abundance ratio [38]: 0.439
Abundance ratio (log2) [38]: −1.19
Abundance ratio [39]: 1.89
Abundance ratio (log2) [39]: 0.92
Abundance ratio [40]: 0.327
Abundance ratio (log2) [40]: −1.61
Abundance ratio (protein: Lumican, upregulated): 1.612
Abundance ratio (log2) (protein: Lumican, upregulated): 0.69
Abundance ratio [41]: 0.233
Abundance ratio (log2) [41]: −2.1
Abundance ratio [42]: 1.861
Abundance ratio (log2) [42]: 0.9
Abundance ratio [43]: 1.824
Abundance ratio (log2) [43]: 0.87
Abundance ratio [44]: 0.473
Abundance ratio (log2) [44]: −1.08
Abundance ratio [45]: 0.468
Abundance ratio (log2) [45]: −1.1
Abundance ratio [46]: 0.488
Abundance ratio (log2) [46]: −1.03
Abundance ratio [47]: 0.484
Abundance ratio (log2) [47]: −1.05
Abundance ratio [48]: 1.946
Abundance ratio (log2) [48]: 0.96
Abundance ratio [49]: 0.474
Abundance ratio (log2) [49]: −1.08
Abundance ratio [50]: 0.46
Abundance ratio (log2) [50]: −1.12
Abundance ratio [51]: 3.085
Abundance ratio (log2) [51]: 1.63
Abundance ratio [52]: 1.711
Abundance ratio (log2) [52]: 0.77
Abundance ratio [53]: 1.656
Abundance ratio (log2) [53]: 0.73
Abundance ratio [54]: 1.786
Abundance ratio (log2) [54]: 0.84
Abundance ratio [55]: 0.441
Abundance ratio (log2) [55]: −1.18
Abundance ratio [56]: 0.401
Abundance ratio (log2) [56]: −1.32
Abundance ratio [57]: 0.405
Abundance ratio (log2) [57]: −1.3
Abundance ratio [58]: 1.69
Abundance ratio (log2) [58]: 0.76
Abundance ratio [59]: 3.158
Abundance ratio (log2) [59]: 1.66
Abundance ratio [60]: 1.597
Abundance ratio (log2) [60]: 0.68
Abundance ratio [61]: 0.364
Abundance ratio (log2) [61]: −1.46
Hydroxymethylglutaryl-CoA synthase, cytoplasmic (HMGCS1) protein: upregulation
Hydroxymethylglutaryl-CoA synthase, cytoplasmic (HMGCS1) protein (listed as JR-1-235): upregulated

— patent publication US20220081412A1, “QUINOLINYL-PYRAZINE-CARBOXAMIDE COMPOUNDS AND USES THEREOF” (The Regents of the University of Michigan, priority 2018, published 2022)
